# From PubChem BioAssay AID192 (DTP/NCI, 2004)
# Values joined by “and” are separate entries in the source; they are usually repeats but may differ in a detail not shown here. Equal entries are not always repeated. Inconclusive results and toxic doses are left out. Peptide text beside a SMILES is read from it. * marks the point of attachment. CH2Cl = ClC*
# Tested on: BDF1 mice, B16 melanoma ip, median survival T/C
# Experiment: NCI In Vivo Anticancer Drug Screen. Data for tumor model B16 Melanoma (intraperitoneal) in B6D2F1 (BDF1) mice
# Conditions: endpoint: median survival time, higher = longer survival
# Description: The antitumor activity of compounds was measured in mice bearing transplantable tumors. Survival or tumor size were measured and the results are expressed as the measurement made in the treated group (T) divided by the measurement made in the vehicle treated control group (C). The tumor model used in this assay is B16 Melanoma (intraperitoneal) in B6D2F1 (BDF1) mice
# [1] = dose: 12.5 mg/kg/injection, schedule: Q01DX009 (ip), vehicle: saline with Tween-80
# [2] = dose: 25.0 mg/kg/injection, schedule: Q01DX009 (ip), vehicle: saline with Tween-80
# [3] = dose: 50.0 mg/kg/injection, schedule: Q01DX009 (ip), vehicle: saline with Tween-80
# [4] = dose: 100.0 mg/kg/injection, schedule: Q01DX009 (ip), vehicle: saline with Tween-80
# [5] = dose: 50.0 mg/kg/injection, schedule: Q01DX009 (ip), vehicle: water
# [6] = dose: 100.0 mg/kg/injection, schedule: Q01DX009 (ip), vehicle: water
# [7] = dose: 200.0 mg/kg/injection, schedule: Q01DX009 (ip), vehicle: saline with Tween-80
# [8] = dose: 100.0 mg/kg/injection, schedule: Q01DX009 (ip), vehicle: Klucel (hydroxypropylcellulose) (HPC)
# [9] = dose: 100.0 mg/kg/injection, schedule: Q04DX003 (ip), vehicle: Klucel (hydroxypropylcellulose) (HPC)
# [10] = dose: 200.0 mg/kg/injection, schedule: Q01DX009 (ip), vehicle: Klucel (hydroxypropylcellulose) (HPC)
# [11] = dose: 200.0 mg/kg/injection, schedule: Q04DX003 (ip), vehicle: Klucel (hydroxypropylcellulose) (HPC)
# [12] = dose: 400.0 mg/kg/injection, schedule: Q01DX009 (ip), vehicle: Klucel (hydroxypropylcellulose) (HPC)
# [13] = dose: 400.0 mg/kg/injection, schedule: Q04DX003 (ip), vehicle: Klucel (hydroxypropylcellulose) (HPC)
# [14] = dose: 12.5 mg/kg/injection, schedule: Q01DX009 (ip), vehicle: saline
# [15] = dose: 25.0 mg/kg/injection, schedule: Q01DX009 (ip), vehicle: saline
# [16] = dose: 50.0 mg/kg/injection, schedule: Q01DX009 (ip), vehicle: saline
# [17] = dose: 1.56 mg/kg/injection, schedule: Q01DX009 (ip), vehicle: Klucel (hydroxypropylcellulose) (HPC)
# [18] = dose: 3.12 mg/kg/injection, schedule: Q01DX009 (ip), vehicle: Klucel (hydroxypropylcellulose) (HPC)
# [19] = dose: 6.25 mg/kg/injection, schedule: Q01DX009 (ip), vehicle: Klucel (hydroxypropylcellulose) (HPC)
# [20] = dose: 12.5 mg/kg/injection, schedule: Q01DX009 (ip), vehicle: Klucel (hydroxypropylcellulose) (HPC)
# [21] = dose: 25.0 mg/kg/injection, schedule: Q01DX009 (ip), vehicle: Klucel (hydroxypropylcellulose) (HPC)
# [22] = dose: 50.0 mg/kg/injection, schedule: Q01DX009 (ip), vehicle: Klucel (hydroxypropylcellulose) (HPC)
smiles,measurement,setting,value
COc1ccc2c(c1OC(C)=O)-c1cc(O)cc3c1C(C2)N(C(=O)CN(CCCl)CCCl)CC3 (centres undefined),T/C,"dose: 3.12 mg/kg/injection, schedule: Q01DX009 (ip), vehicle: saline with Tween-80",168 % of control
same,T/C,"dose: 6.25 mg/kg/injection, schedule: Q01DX009 (ip), vehicle: saline with Tween-80",187 % of control
same,T/C,"dose: 6.25 mg/kg/injection, schedule: Q04DX003 (ip), vehicle: DMSO",103 % of control
same,T/C,[1],197 % of control
same,T/C,"dose: 12.5 mg/kg/injection, schedule: Q04DX003 (ip), vehicle: DMSO",121 % of control
same,T/C,"dose: 25.0 mg/kg/injection, schedule: Q04DX003 (ip), vehicle: DMSO",110 % of control
same,T/C,"dose: 100.0 mg/kg/injection, schedule: Q04DX003 (ip), vehicle: DMSO",112 % of control
CC(=O)Nc1ccc2c(ccc3ccccc32)c1,T/C,[2],90 % of control
same,T/C,[3],102 % of control
same,T/C,[4],89 % of control
CN(C)CCCNc1cc(O)c2c(c1O)C(=O)c1ccccc1C2=O,T/C,[5],116 % of control
same,T/C,[6],107 % of control
[Cl][Pt+2][Cl].[NH-]c1ccccc1[NH-],T/C,"dose: 0.63 mg/kg/injection, schedule: Q01DX009 (ip), vehicle: saline with Tween-80",117 % of control
same,T/C,"dose: 1.25 mg/kg/injection, schedule: Q01DX009 (ip), vehicle: Klucel (hydroxypropylcellulose) (HPC)",100 % of control and 123 % of control
same,T/C,"dose: 1.25 mg/kg/injection, schedule: Q01DX009 (ip), vehicle: saline with Tween-80",117 % of control
same,T/C,"dose: 2.5 mg/kg/injection, schedule: Q01DX009 (ip), vehicle: Klucel (hydroxypropylcellulose) (HPC)",92 % of control
same,T/C,"dose: 2.5 mg/kg/injection, schedule: Q01DX009 (ip), vehicle: saline with Tween-80",122 % of control
same,T/C,"dose: 10.0 mg/kg/injection, schedule: Q01DX009 (ip), vehicle: saline with Tween-80",92 % of control
C(=NC1CCCCC1)c1c[nH]c2ccccc12,T/C,[3],100 % of control
same,T/C,[4],97 % of control
same,T/C,[7],97 % of control
O=C(CCl)Nc1nccs1,T/C,[1],103 % of control
same,T/C,[2],100 % of control
same,T/C,[3],93 % of control
same,T/C,[4],87 % of control
O=C1NC(=S)S/C1=C\c1ccc(Cl)c(Cl)c1,T/C,[8],88 % of control
same,T/C,[9],88 % of control
same,T/C,[10],97 % of control
same,T/C,[11],93 % of control
same,T/C,[12],97 % of control
same,T/C,[13],88 % of control
O=CNC(CSC(c1ccccc1)c1ccccc1)C(=O)O (centres undefined),T/C,"dose: 50.0 mg/kg/injection, schedule: Q04DX003 (ip), vehicle: Klucel (hydroxypropylcellulose) (HPC)",105 % of control
same,T/C,[9],100 % of control
same,T/C,[11],94 % of control
CC(C)N(Cc1ccccc1)CC(O)c1ccc(Cl)cc1 (centres undefined),T/C,[14],94 % of control
same,T/C,[15],86 % of control
same,T/C,[16],101 % of control
CC[P+](CC)(CC)CCCCI,T/C,[16],93 % of control
COc1ccc(CCN2CCCC2C(=O)O)cc1OC (centres undefined),T/C,"dose: 100.0 mg/kg/injection, schedule: Q04DX003 (ip), vehicle: saline",100 % of control
same,T/C,"dose: 200.0 mg/kg/injection, schedule: Q04DX003 (ip), vehicle: saline",105 % of control
same,T/C,"dose: 400.0 mg/kg/injection, schedule: Q04DX003 (ip), vehicle: saline",96 % of control
COC(=O)Nc1cn2cc(C(=O)c3cccs3)ccc2n1,T/C,[17],93 % of control
same,T/C,[18],98 % of control
same,T/C,[19],104 % of control
same,T/C,[20],113 % of control
same,T/C,[21],123 % of control
COc1ccc(N=Cc2ccc(C=Nc3ccc(OC)cc3)cc2)cc1,T/C,[22],92 % of control and 94 % of control
same,T/C,[8],96 % of control
same,T/C,[10],88 % of control and 93 % of control
CC1=C(/C=C/C(C)=C/C=C/C(C)=C/C(=O)O)C(C)(C)CCC1,T/C,"dose: 0.5 mg/kg/injection, schedule: Q01DX009 (ip), vehicle: saline with Tween-80",98 % of control
same,T/C,"dose: 1.0 mg/kg/injection, schedule: Q01DX009 (ip), vehicle: saline with Tween-80",90 % of control
same,T/C,"dose: 8.0 mg/kg/injection, schedule: Q01DX009 (ip), vehicle: saline with Tween-80",92 % of control
same,T/C,"dose: 16.0 mg/kg/injection, schedule: Q01DX009 (ip), vehicle: saline with Tween-80",86 % of control and 88 % of control (2×)
same,T/C,"dose: 32.0 mg/kg/injection, schedule: Q01DX009 (ip), vehicle: saline with Tween-80",86 % of control and 94 % of control
same,T/C,"dose: 64.0 mg/kg/injection, schedule: Q01DX009 (ip), vehicle: saline with Tween-80",93 % of control
C[N+](C)(C)c1cc2c(nn1)Nc1ccccc1S2,T/C,[18],101 % of control
same,T/C,[19],98 % of control
same,T/C,[20],101 % of control
same,T/C,[21],101 % of control
same,T/C,[22],102 % of control
same,T/C,[8],89 % of control
Cc1ccc(S(=O)(=O)N=N/C=C2/C=CC=CN2O)cc1,T/C,[21],108 % of control
same,T/C,[22],114 % of control
same,T/C,[8],115 % of control
CCCCCCC(=O)CC(SCC)c1ccccc1Cl (centres undefined),T/C,[2],107 % of control
same,T/C,[3],107 % of control
same,T/C,[4],107 % of control
same,T/C,[7],100 % of control
same,T/C,"dose: 400.0 mg/kg/injection, schedule: Q01DX009 (ip), vehicle: saline with Tween-80",91 % of control
O=S(=O)(OCC(F)(F)F)c1ccccc1,T/C,[22],109 % of control
same,T/C,[8],100 % of control
same,T/C,[10],97 % of control
CCCCCCCCCCCCCCCCP(=O)(OCCOCCCCCC)OCCOCCCCCC,T/C,"dose: 3.12 mg/kg/injection, schedule: Q01DX009 (ip), vehicle: saline",103 % of control
same,T/C,"dose: 6.25 mg/kg/injection, schedule: Q01DX009 (ip), vehicle: saline",116 % of control
same,T/C,[14],109 % of control
same,T/C,[15],102 % of control
same,T/C,[16],94 % of control
COc1ccc(NC(=S)Nc2ccccn2)cc1,T/C,[8],107 % of control
same,T/C,[4],100 % of control
same,T/C,[10],100 % of control
same,T/C,[7],100 % of control
same,T/C,[12],92 % of control
C#CCOCC(O)CCl (centres undefined),T/C,[15],94 % of control
same,T/C,[16],105 % of control
same,T/C,[4],95 % of control
same,T/C,"dose: 100.0 mg/kg/injection, schedule: Q01DX009 (ip), vehicle: saline",89 % of control
OCc1cc2ccccc2[nH]1,T/C,[9],112 % of control
same,T/C,[11],110 % of control
same,T/C,[13],106 % of control
Cc1c(Cl)cccc1NC(=O)C(c1ccccc1)c1ccccc1,T/C,[2],99 % of control
same,T/C,[3],86 % of control
same,T/C,[4],91 % of control
CC(=O)CC(C)(C)C1CCCCC1,T/C,"dose: 12.5 mg/kg/injection, schedule: Q01DX009 (ip), vehicle: water",107 % of control
same,T/C,"dose: 25.0 mg/kg/injection, schedule: Q01DX009 (ip), vehicle: water",98 % of control
same,T/C,[5],95 % of control
same,T/C,[6],102 % of control
same,T/C,"dose: 200.0 mg/kg/injection, schedule: Q01DX009 (ip), vehicle: water",88 % of control
CC(=O)CC(=O)N1CCC(C)CC1,T/C,[8],110 % of control
same,T/C,[10],112 % of control
same,T/C,[12],115 % of control
CCCCCCCCCCCCCC(=O)CCC,T/C,[21],105 % of control
same,T/C,[22],101 % of control
same,T/C,"dose: 100.0 mg/kg/injection, schedule: Q01DX009 (ip), vehicle: other",88 % of control
CC(=O)NC(CC(C)C)C(=O)NC(Cc1ccccc1)C(=O)CCl (stereo not drawn) (Ac-Leu-Phe-CH2Cl; configuration not given here),T/C,[17],100 % of control
same,T/C,[18],100 % of control
same,T/C,[19],96 % of control and 97 % of control
CC(C)c1ccc(NC(=O)Nc2cc(Cl)ccc2Cl)cc1,T/C,"dose: 4.0 mg/kg/injection, schedule: Q01DX009 (ip), vehicle: gum acacia",93 % of control
same,T/C,"dose: 8.0 mg/kg/injection, schedule: Q01DX009 (ip), vehicle: gum acacia",90 % of control
same,T/C,"dose: 16.0 mg/kg/injection, schedule: Q01DX009 (ip), vehicle: gum acacia",93 % of control
